Each block holds one compound with its values, some of them ahead of it.
Tests used:
TPH1 = target: T1, TPH1 (Homo sapiens, UniProt P17752); assay: TPH1 enzyme inhibition, in vitro screening (BPS Bioscience kit, fluorescence); assay type: biochemical; conditions: for inhibition at 1 µM / TPH1 Inhibition (% Inhibition at 1 µM): 1 µM compound; for inhibition at 10 µM: 10 µM compound (stated in the cell)
T1 construct: purchased BPS Bioscience
T1 sequence (P17752 1-444): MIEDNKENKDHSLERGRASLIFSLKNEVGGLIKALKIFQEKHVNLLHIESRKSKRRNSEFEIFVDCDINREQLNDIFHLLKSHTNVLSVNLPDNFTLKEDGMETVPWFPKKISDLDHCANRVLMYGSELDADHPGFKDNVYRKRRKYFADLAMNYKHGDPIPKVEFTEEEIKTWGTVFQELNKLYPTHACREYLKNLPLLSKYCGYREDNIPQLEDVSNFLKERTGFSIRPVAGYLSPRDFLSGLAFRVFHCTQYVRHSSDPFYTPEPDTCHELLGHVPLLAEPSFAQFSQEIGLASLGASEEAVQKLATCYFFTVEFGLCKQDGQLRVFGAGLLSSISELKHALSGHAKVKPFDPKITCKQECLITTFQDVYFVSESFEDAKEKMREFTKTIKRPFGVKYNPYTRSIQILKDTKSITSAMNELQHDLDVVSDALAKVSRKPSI
Protocol: Consequently, the core structure of thienopyrimidine tyrosine (derivative 6) was selected as the starting point for the synthesis, evaluating the structure-activity relationships (SAR), and optimization of TPH1 inhibitors. […]
In vitro screening was performed as described previously [PMID: 33417443]. Briefly, TPH1 enzyme activity was measured with a commercially available kit (BPS Bioscience). Compounds were dissolved in DMSO (Sigma). Then, 10 μL of the compound was dispensed into a 96-well microplate, and 40 μL of the TPH1 enzyme solution (320 ng enzyme/reaction) was added. Then, 50 μL of the TPH1 reaction solution was added, and the microplate was sealed with aluminum foil. The microplate was immediately cooled to 4 °C, gently shaken, and incubated for 4 h. After a defined time, 10 μL of the TPH1 quench solution was added. Then, the fluorescence was measured with a Flexstation3 microplate reader at 300 nm for excitation and 360 nm for emission. All experiments were performed in triplicate.

HFD-fed C57BL/6J mice = assay: In vivo efficacy test in high-fat diet fed mice; design: species or system mouse; conditions: vs vehicle
Protocol: All animal study protocols were approved by the Institutional Animal Care and Use Committee at the Korea Advanced Institute of Science and Technology. Male C57BL/6J mice were purchased from SLC (Shizuoka, Japan) and acclimatized for a week. Mice were housed in a humidity and temperature-controlled environment under a 12 h light-dark cycle with ad libitum access to water and food. After acclimatization, male mice were fed a high-fat diet (HFD, 60% fat calories, Research diet; New Brunswick, NJ) and received daily treatment with TPH1 inhibitors. […] Compound 18i was dissolved in 5% dimethyl sulfoxide (DMSO) (Sigma, St. Louis, MO, USA) and 25% β-cyclodextrin (Sigma, St. Louis, MO, USA). Vehicle or compound 18i (100 mg kg^−1) was injected intraperitoneally in mice for 10 days after two weeks of HFD feeding. Both compounds 19 and 21 were prepared in 10% DMSO and 10% Kolliphor EL (Sigma, St. Louis, MO, USA). Vehicle and 100 mg kg^−1 of compound 19 or compound 21 were administered daily by intraperitoneal injection or oral feeding, respectively, concomitant to the initiation of HFD feeding. For analyzing blood glucose concentration, glucose in blood collected from the tail vein was measured after fasting mice for 16 h using a Gluco Dr. Top glucometer (Allemedicus, Anyang, Korea). Body weight was measured daily and mice were sacrificed for harvesting adipose tissue and liver.
Tissue samples were fixed in 10% formalin, embedded in paraffin, and cut into 5 μm thick sections, followed by deparaffinization and rehydration for H&E staining and UCP1 immunohistochemistry. After heat-induced antigen retrieval with a citrate buffer (pH 6.0) for 10 min at 95°C, tissue sections were incubated with BLOXALL Blocking solution (Vector Laboratories, Burlingame, CA, USA) to block endogenous peroxidase, followed by incubation with 2% normal goat serum in phosphate-buffered saline (PBS) for 30 min at room temperature to block nonspecific binding. Sections were incubated overnight with the anti-UCP1 primary antibody diluted 1:200 in 2% normal goat serum in PBS (Abcam, Cambridge, UK) at 4 °C, followed by 30 min incubation with biotinylated anti-rabbit IgG secondary antibody diluted 1:400 in PBS for 30 min at room temperature. After incubation with Vectastain […] reagent (Vector Laboratories) for 30 min, peroxidase activity was visualized with 3,3′-diaminobenzidine substrates (Vector Laboratories). For measuring average adipocyte size, we analyzed three random fields of H&E stained micrographs per adipose tissue sample from two representative mice of each group using AdipoCount software.
Fresh liver tissues were flash frozen in O.C.T. compound (Sakura Finetek, Torrance, CA, USA) and 10 μm cryostat sections were collected on glass slides. Sections were allowed to air-dry for 1 h, rinsed with PBS for 5 min, and washed with distilled water for 5 min. After washing, sections were placed in 30% isopropanol for 5 min, 60% isopropanol for 5 min twice, and then stained in Oil Red O solution (0.5% Oil red O (Sigma, St. Louis, MO, USA) dissolved in 60% isopropanol) for 15 min. The stained sections were rinsed twice with distilled water, mounted, coverslipped, and documented using bright field microscopy.

[1] = system: high-fat diet (HFD) fed mice; design: method as in PMID 25864946, PMID 25485911; conditions: cited from earlier work
PAMPA-BBB permeability = assay type: in vitro ADME; conditions: high permeation predicted > 4.0, low < 2.0, read-out: BBB Permeability Pe
Description: Based on the in vitro data, compound 18i was selected for […] the in vitro BBB permeability. Several in vitro methods and computational models have been used in drug discovery to predict the potential of a drug to penetrate the BBB [15, 16, 17, 18, 19, 20, 21]. The parallel artificial membrane permeation assay (PAMPA) was used to evaluate the BBB permeability of the selected compounds. The PAMPA-BBB assay is advantageous because it predicts passive penetration at the blood-brain barrier with high success, high throughput, low cost, and high reproducibility.
PAMPA was conducted with a […] PAMPA sandwich (pION, Inc., Billerica, MA, USA) consisting of a 96-well filter plate (0.45 μm PVDF membrane) and a 96-well polystyrene donor plate. Test compounds were prepared in 10 mM stock solution with DMSO and diluted to a working solution of 50 μM concentration using a phosphate buffered saline (PBS) buffer. To form lipid membranes in the acceptor plate, 5 μL GIT-0 lipid (pION, Inc., Billerica, MA, USA) was dropped and semi-dried on the bottom side of the 0.45 μm PVDF membrane. The donor plate was prepared by the addition of 200 μL of working solution. […] To acquire the peak area of range from 230 to 500 nm, absorbance scans of PBS, acceptor, donor, and working solution were carried out with an Epoch ELISA reader (BioTek Instruments Inc., Winooski, VT, USA). […]

Compound: N[C@@H](Cc1ccc(Oc2ncnc3c(Br)csc23)cc1)C(=O)O [Compound 6]
inhibition at 100 µM (TPH1; 100 µM compound): > 60%

Compound: N[C@@H](Cc1ccc(Oc2ncnc3c(-c4ccc(O)cc4)csc23)cc1)C(=O)O [Compound 9a]
inhibition at 100 µM (TPH1; 100 µM compound): 45%

Compound: N[C@@H](Cc1ccc(Oc2ncnc3c(-c4cccc(O)c4)csc23)cc1)C(=O)O [Compound 9b]
inhibition at 100 µM (TPH1; 100 µM compound): 82%

Compound: CCOC(=O)[C@@H](N)Cc1ccc(-c2csc3c(O[C@H](c4ccc(Cl)cc4-n4ccc(C)n4)C(F)(F)F)ncnc23)cc1.Cl [Compound 19, ethyl (S)-2-amino-3-(4-(4-((R)-1-(4-chloro-2-(3-methyl-1H-pyrazol-1-yl)phenyl)-2,2,2-trifluoroethoxy)thieno[3,2-d]pyrimidin-7-yl)phenyl)propanoate hydrochloride]
IC50 (TPH1): 994 nM
TPH1 Inhibition (% Inhibition at 1 µM) (TPH1): 60%
Body weight gain (HFD-fed C57BL/6J mice; 100 mg/kg ip daily for 11 days from start of HFD): attenuated body weight gain
Adipocyte size in eWAT and iWAT (histology) (HFD-fed C57BL/6J mice; 100 mg/kg ip daily): decreased adipocyte size
UCP1 content in iWAT (immunohistochemistry) (HFD-fed C57BL/6J mice; 100 mg/kg ip daily): higher content of mitochondrial uncoupling protein 1 (UCP1)

Compound: CCOC(=O)[C@@H](N)Cc1ccc(-c2csc3c(O[C@H](c4ccc(Cl)cc4-n4ccc(C)n4)C(F)(F)F)ncnc23)cc1 [Compound 20, ethyl (S)-2-amino-3-(4-(4-((R)-1-(4-chloro-2-(3-methyl-1H-pyrazol-1-yl)phenyl)-2,2,2-trifluoroethoxy)thieno[3,2-d]pyrimidin-7-yl)phenyl)propanoate]
TPH1 Inhibition (% Inhibition at 1 µM) (TPH1; 1 µM): 79%

Compound: CCOC(=O)[C@@H](N)Cc1ccc(-c2csc3c(O[C@H](c4ccc(Cl)cc4-n4ccc(C)n4)C(F)(F)F)ncnc23)cc1 [Compound 21, ethyl (S)-2-amino-3-(4-(4-((R)-1-(4-chloro-2-(3-methyl-1H-pyrazol-1-yl)phenyl)-2,2,2-trifluoroethoxy)thieno[3,2-d]pyrimidin-7-yl)phenyl)propanoate hippurate]
TPH1 Inhibition (% Inhibition at 1 µM) (TPH1; 1 µM): 92%
Body and liver weights (HFD-fed C57BL/6J mice; 100 mg/kg oral daily, 6 weeks): without significant changes in body and liver weights
Lipid accumulation in liver tissue (H&E, oil red O) (HFD-fed C57BL/6J mice; 100 mg/kg oral daily, 6 weeks): dramatically decreased lipid accumulation in liver tissue

Compound: Cc1ccn(-c2cc(Cl)ccc2[C@@H](Oc2nc(N)nc3c(-c4ccc(C[C@H](N)C(=O)O)cc4)csc23)C(F)(F)F)n1 [Compound 30]
IC50 (TPH1): 208 nM
inhibition at 1 µM (TPH1): 91%

Compound: Nc1nc(OC(c2ccc(-c3cccc(F)c3)cc2)C(F)(F)F)cc(-c2ccc(C[C@H](N)C(=O)O)cc2)n1 (stereo partly drawn) [LP533401, 4-[2-amino-6-[2,2,2-trifluoro-1-(3’-fluoro[1,1’-biphenyl]-4-yl)ethoxy]-4-pyrimidinyl]-L-phenylalanine, reference compound]
Protection against diet-induced obesity (body weight gain, lipogenesis in adipose tissue) [1]: protect against diet-induced obesity in vivo

Compound: NC(Cc1ccc(Cl)cc1)C(=O)O (centres unmarked) [pCPA, para-chlorophenylalanine, reference compound]
inhibition at 1 µM (TPH1): < 5%
inhibition at 100 µM (TPH1; 100 µM compound): 25%
Papp at 4 h, 50 µM (PAMPA-BBB permeability): 1.85 ×10⁻⁶ cm/s
Protection against diet-induced obesity (body weight gain, lipogenesis in adipose tissue) [1]: protect against diet-induced obesity in vivo

Next, values leading:

inhibition at 100 µM (TPH1; 100 µM compound): 58%
Compound: N[C@@H](Cc1ccc(Oc2ncnc3c(-c4ccc(OCc5ccccc5)cc4)csc23)cc1)C(=O)O [Compound 11a]

inhibition at 100 µM (TPH1; 100 µM compound): 94%
TPH1 Inhibition (% Inhibition at 100 µM) (TPH1; 100 µM compound, 100 µM): 92%
Compound: N[C@@H](Cc1ccc(Oc2ncnc3c(-c4cccc(OCc5ccccc5)c4)csc23)cc1)C(=O)O [Compound 11b]

TPH1 inhibitory activity (in words) (TPH1): weak activity
inhibition at 100 µM (TPH1; 100 µM compound): 49%
Compound: Nc1ncnc2c(-c3ccc(C[C@H](N)C(=O)O)cc3)csc12 [Compound 15a]

TPH1 inhibitory activity (in words) (TPH1): weak activity
inhibition at 100 µM (TPH1; 100 µM compound): 33%
Compound: N[C@@H](Cc1ccc(-c2csc3c(O)ncnc23)cc1)C(=O)O [Compound 15b]

inhibition at 1 µM (TPH1): 25%
inhibition at 100 µM (TPH1; 100 µM compound): 90%
Compound: N[C@@H](Cc1ccc(-c2csc3c(NCc4ccc(-c5ccccc5)cc4)ncnc23)cc1)C(=O)O [Compound 18a]

inhibition at 1 µM (TPH1): 10%
Compound: C[C@@H](Nc1ncnc2c(-c3ccc(C[C@H](N)C(=O)O)cc3)csc12)c1ccc2ccccc2c1 [Compound 18b]

TPH1 inhibitory activity (in words) (TPH1): completely lost their activity
inhibition at 10 µM (TPH1): 2.5%
Compound: Cl.N[C@@H](Cc1ccc(-c2csc3c(OC(c4ccccc4)C(F)(F)F)ncnc23)cc1)C(=O)O (some centres unmarked) [Compound 18c]

TPH1 inhibitory activity (in words) (TPH1): completely lost their activity
inhibition at 10 µM (TPH1): 1.2%
Compound: N[C@@H](Cc1ccc(-c2csc3c(OC(c4ccc(-c5ccccc5)cc4)C(F)(F)F)ncnc23)cc1)C(=O)O (some centres unmarked) [Compound 18d]

inhibition at 1 µM (TPH1): 76%
Compound: N[C@@H](Cc1ccc(-c2csc3c(OC(c4ccccc4-c4ccccc4)C(F)(F)F)ncnc23)cc1)C(=O)O (some centres unmarked) [Compound 18e]

inhibition at 1 µM (TPH1): 41%
Compound: N[C@@H](Cc1ccc(-c2csc3c(OC(c4ccc(Cl)cc4-c4ccccc4)C(F)(F)F)ncnc23)cc1)C(=O)O (some centres unmarked) [Compound 18f]

inhibition at 1 µM (TPH1): 12%
Compound: N[C@@H](Cc1ccc(-c2csc3c(O[C@H](c4ccc(Cl)cc4-c4ccoc4)C(F)(F)F)ncnc23)cc1)C(=O)O [Compound 18g]

IC50 (TPH1): 263 nM
inhibition at 1 µM (TPH1): 78%
Compound: N[C@@H](Cc1ccc(-c2csc3c(O[C@H](c4ccc(Cl)cc4C4=CCCOC4)C(F)(F)F)ncnc23)cc1)C(=O)O [Compound 18h]

— paper PMC9182086, “Identification of New Non-BBB Permeable Tryptophan Hydroxylase Inhibitors for Treating Obesity and Fatty Liver Disease” (Molecules, 2022)
